From patent publication US9802974B2, “Synthesis of diverse glycosylphosphatidylinositol glycans from Toxoplasma gondii and their application as vaccines and diagnostics” (Max-Planck-Gesellschaft zur Förderung der Wissenschaften …, priority 2012, dated 2017)

Tested on: T. gondii tachyzoites
Test: Immunofluorescence confocal microscopy of T. gondii tachyzoites with serum of mice immunized with the compound 4-CRM197 conjugate
Format: binding, Toxoplasma gondii
Details: paraformaldehyde-fixed tachyzoites, pooled serum from immunized mice, FIG. 13
Method: Full circle in (C) indicates the apical and half circle the basolateral end of the parasite (white bar=5 μm).
Extracellular tachyzoites collected from cell culture supernatants were fixed with 4% (w/v) paraformaldehyde in PBS for 30 min. Cells were washed three times with PBS, and incubated for 1 h with mice sera raised against compounds 3 or 4 diluted to 100 in PBS, 10% BSA. Cells were washed three times with PBS before incubated for 1 h with secondary FITC-conjugated anti-mouse immunoglobulin antibody (DakoCytomation, Glostrup) containing 10% BSA and washed finally three times with PBS. After three final washes with PBS, aliquot were spotted on microscope slides followed by a glass cover slides, mounted in Fluoroprep (Dako) and recorded by using a 100× Plan-NeoFluar oil objective lens with NA 1.30 using an Axiophot microscop (Zeiss).
In contrast, antibodies binding to the parasite in sera of mice before immunization could not be detected. […] Tachyzoites secrete factors for attachment, invasion and formation of the parasitophorous vacuole, which is surrounding and protecting the parasite inside the host cell from endocytosis, in a regulated fashion from the apical region. […]

Substance: 6-O-(aminoethyl phosphono)-α-D-mannopyranosyl-(1→2)-α-D-mannopyranosyl-(1→6)-4-O-(α-D-glucopyranosyl-(1→4)-2-deoxy-2-acetamido-β-D-galactopyranosyl)-α-D-manno-pyranosyl-(1→4)-2-amino-2-deoxy-α-D-glucopyranosyl-(1→6)-1-O-(thiohexyl phosphono)-D-myo-inositol [compound 4]
- recognition of the natural GPI antigen on the T. gondii parasite by antibodies raised against the substance: bound to the surface of the parasite
